Read-outs that look alike come from different tables or passages of the source.
Target: PD-1/PD-L1 (Homo sapiens (Human), UniProt Q9NZQ7)
Test: PD-1/PD-L1 Homogenous Time-Resolved Fluorescence (HTRF) binding assay
Details: PD-1-Ig / PD-L1-His HTRF, read-out: Range or IC50
Description: The ability of the compounds of formula (I) to bind to PD-L1 was investigated using a PD-1/PD-L1 Homogenous Time-Resolved Fluorescence (HTRF) binding assay.
Homogenous Time-Resolved Fluorescence (HTRF) binding assay.
The interaction of PD-1 and PD-L1 can be assessed using soluble, purified preparations of the extracellular domains of the two proteins. The PD-1 and PD-L1 protein extracellular domains were expressed as fusion proteins with detection tags, for PD-1, the tag was the Fc portion of Immunoglobulin (PD-1-Ig) and for PD-L1 it was the 6 histidine motif (PD-L1-His). All binding studies were performed in an HTRF assay buffer consisting of dPBS supplemented with 0.1% […] bovine serum albumin and 0.05% (v/v) Tween-20. For the h/PD-L1-His binding assay, inhibitors were pre-incubated with PD-L1-His (10 nM final) for 15 m in 4 μl of assay buffer, followed by addition of PD-1-Ig (20 nM final) in 1 μl of assay buffer and further incubation for 15 m. HTRF detection was achieved using europium crypate-labeled anti-Ig (1 nM final) and allophycocyanin (APC) labeled anti-His (20 nM final). Antibodies were diluted in HTRF detection buffer and 5 μl was dispensed on top of the binding reaction. The reaction mixture was allowed to equilibrate for 30 minutes and the resulting signal (665 nm/620 nm ratio) was obtained using an EnVision fluorometer. Additional binding assays were established between the human proteins PD-1-Ig/PD-L2-His (20 & 5 nM, respectively) and CD8O-His/PD-L1-Ig (100 & 10 nM, respectively).
Recombinant Proteins: Human PD-1 (25-167) with a C-terminal human Fc domain of immunoglobulin G (Ig) epitope tag [hPD-1 (25-167)-3S-IG] and human PD-L1 (18-239) with a C-terminal His epitope tag [hPD-L1(18-239)-TVMV-His] were expressed in HEK293T cells and purified sequentially by ProteinA affinity chromatography and size exclusion chromatography. Human PD-L2-His and CD80-His was obtained through commercial sources.
The table below lists the IC50 values for representative examples of this disclosure measured in the PD-1/PD-L1 Homogenous Time-Resolved Fluorescence (HTRF) binding assay. Ranges are as follows: A=0.18 nM-0.99 nM; B=1.0 nM-5.0 nM; C=5.01 nM-10.1 nM; D=10.2 nM-200 nM; E=201 nM→10 uM

Sequence of PD-1/PD-L1 (Q9NZQ7 other isoform, or with tags, fused parts or gaps): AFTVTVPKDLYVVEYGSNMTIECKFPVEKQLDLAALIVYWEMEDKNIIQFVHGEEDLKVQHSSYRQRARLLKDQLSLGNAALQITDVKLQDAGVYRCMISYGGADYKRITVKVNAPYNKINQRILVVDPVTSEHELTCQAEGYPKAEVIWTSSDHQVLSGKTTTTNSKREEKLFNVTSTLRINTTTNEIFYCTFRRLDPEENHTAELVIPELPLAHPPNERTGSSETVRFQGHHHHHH

Structure (SMILES) | IC50 (value given as range class) | IC50 (value given as number)
Cc1c(COc2cc(OCc3cncc(C#N)c3)c(CN3CCCC[C@H]3C(=O)O)cc2Cl)cccc1-c1ccc2oc(C3CCC(C(=O)O)CC3)nc2c1 (single isomer, unassigned) [Example 1025] | 0.18 to 0.99 nM | 
Cc1c(COc2cc(OCc3cncc(C#N)c3)c(CN3CCCC[C@H]3C(=O)O)cc2Cl)cccc1-c1ccc2oc(C3CCC(C(=O)O)CC3)nc2c1 (single isomer, unassigned) [Example 1026] | 201 to 10000 nM | 
Cc1c(COc2cc(OCc3cncc(C#N)c3)c(CN3CCCC[C@H]3C(=O)O)cc2Cl)cccc1-c1ccc2oc(C3CCN(C)CC3)nc2c1 [Example 1001, (S)-1-(5-chloro-2-((5-cyanopyridin-3-yl)methoxy)-4-((2-methyl-3-(2-(1-methylpiperidin-4-yl)benzo[d]oxazol-5-yl)benzyl)oxy)benzyl)piperidine-2-carboxylic Acid] | 0.18 to 0.99 nM | 
Cc1c(COc2cc(OCc3cncc(C#N)c3)c(CN3CCCC[C@H]3C(=O)O)cc2Cl)cccc1-c1ccc2nc(C3CCN(C)CC3)oc2c1 [Example 1002, (S)-1-(5-chloro-2-((5-cyanopyridin-3-yl)methoxy)-4-((2-methyl-3-(2-(1-methylpiperidin-4-yl)benzo[d]oxazol-6-yl)benzyl)oxy)benzyl)piperidine-2-carboxylic Acid] | 1 to 5 nM | 
Cc1c(COc2cc(OCc3cncc(C#N)c3)c(CN3CCCC[C@H]3C(=O)O)cc2Cl)cccc1-c1ccc2oc(C3CCCN(C)C3)nc2c1 (stereo partly drawn) [Example 1003, (2S)-1-(5-chloro-2-((5-cyanopyridin-3-yl)methoxy)-4-((2-methyl-3-(2-(1-methylpiperidin-3-yl)benzo[d]oxazol-5-yl)benzyl)oxy)benzyl)piperidine-2-carboxylic Acid] | 1 to 5 nM | 
Cc1c(COc2cc(OCc3cncc(C#N)c3)c(CN3CCCC[C@H]3C(=O)O)cc2Cl)cccc1-c1ccc2oc(C3CCNCC3)nc2c1 [Example 1004, (S)-1-(5-chloro-2-((5-cyanopyridin-3-yl)methoxy)-4-((2-methyl-3-(2-(piperidin-4-yl)benzo[d]oxazol-5-yl)benzyl)oxy)benzyl)piperidine-2-carboxylic Acid] | 1 to 5 nM | 
Cc1c(COc2cc(OCc3cncc(C#N)c3)c(CN3CCCC[C@H]3C(=O)O)cc2Cl)cccc1-c1ccc2oc(C3CCN(C4CC4)CC3)nc2c1 [Example 1005, (S)-1-(5-chloro-2-((5-cyanopyridin-3-yl)methoxy)-4-((3-(2-(1-cyclopropylpiperidin-4-yl)benzo[d]oxazol-5-yl)-2-methylbenzyl)oxy)benzyl)piperidine-2-carboxylic Acid] | 1 to 5 nM | 
Cc1c(COc2cc(OCc3cncc(C#N)c3)c(CN3CCCC[C@H]3C(=O)O)cc2Cl)cccc1-c1ccc2oc(C3CC4CCC(C3)N4)nc2c1 (stereo partly drawn) [Example 1006, (2S)-1-(4-((3-(2-(8-azabicyclo[3.2.1]octan-3-yl)benzo[d]oxazol-5-yl)-2-methylbenzyl)oxy)-5-chloro-2-((5-cyanopyridin-3-yl)methoxy)benzyl)piperidine-2-carboxylic Acid] | 1 to 5 nM | 
Cc1c(COc2cc(OCc3cncc(C#N)c3)c(CN3CCCC[C@H]3C(=O)O)cc2Cl)cccc1-c1ccc2oc(-c3ccncc3)nc2c1 [Example 1007, (S)-1-(5-chloro-2-((5-cyanopyridin-3-yl)methoxy)-4-((2-methyl-3-(2-(pyridin-4-yl)benzo[d]oxazol-5-yl)benzyl)oxy)benzyl)piperidine-2-carboxylic Acid] | 1 to 5 nM | 
Cc1c(COc2cc(OCc3cncc(C#N)c3)c(CN3CCCC[C@H]3C(=O)O)cc2Cl)cccc1-c1ccc2oc(C3CCN(C)C3)nc2c1 (stereo partly drawn) [Example 1008, (2S)-1-(5-chloro-2-((5-cyanopyridin-3-yl)methoxy)-4-((2-methyl-3-(2-(1-methylpyrrolidin-3-yl)benzo[d]oxazol-5-yl)benzyl)oxy)benzyl)piperidine-2-carboxylic Acid] |  | 0.67 nM
Cc1c(COc2cc(OCc3cncc(C#N)c3)c(CN3CCCC[C@H]3C(=O)O)cc2Cl)cccc1-c1cc(C)c2oc(C3CCN(C)CC3)nc2c1 [Example 1009, (S)-1-(5-chloro-2-((5-cyanopyridin-3-yl)methoxy)-4-((2-methyl-3-(7-methyl-2-(1-methylpiperidin-4-yl)benzo[d]oxazol-5-yl)benzyl)oxy)benzyl)piperidine-2-carboxylic Acid] | 1 to 5 nM | 
Cc1c(COc2cc(OCc3cncc(C#N)c3)c(CN3CCCC[C@H]3C(=O)O)cc2Cl)cccc1-c1ccc2oc(C3CCN(C)CC3)nc2c1C [Example 1010, (S)-1-(5-chloro-2-((5-cyanopyridin-3-yl)methoxy)-4-((2-methyl-3-(4-methyl-2-(1-methylpiperidin-4-yl)benzo[d]oxazol-5-yl)benzyl)oxy)benzyl)piperidine-2-carboxylic Acid] | 1 to 5 nM | 
Cc1c(COc2cc(OCc3cncc(C#N)c3)c(CN3CCCC[C@H]3C(=O)O)cc2Cl)cccc1-c1ccc2oc(C3(C)CCNCC3)nc2c1 [Example 1011, (S)-1-(5-chloro-2-((5-cyanopyridin-3-yl)methoxy)-4-((2-methyl-3-(2-(4-methylpiperidin-4-yl)benzo[d]oxazol-5-yl)benzyl)oxy)benzyl)piperidine-2-carboxylic Acid] | 1 to 5 nM | 
CCN(CC)C1CCC(c2nc3cc(-c4cccc(COc5cc(OCc6cncc(C#N)c6)c(CN6CCCC[C@H]6C(=O)O)cc5Cl)c4C)ccc3o2)CC1 (stereo partly drawn) [Example 1012, (S)-1-(5-chloro-2-((5-cyanopyridin-3-yl)methoxy)-4-((3-(2-(4-(diethylamino)cyclohexyl)benzo[d]oxazol-5-yl)-2-methylbenzyl)oxy)benzyl)piperidine-2-carboxylic Acid] | 0.18 to 0.99 nM | 
Cc1c(COc2cc(OCc3cncc(C#N)c3)c(CN3CCCC[C@H]3C(=O)O)cc2Cl)cccc1-c1ccc2oc(C3CCN(C(C)C)CC3)nc2c1 [Example 1013, (S)-1-(5-chloro-2-((5-cyanopyridin-3-yl)methoxy)-4-((3-(2-(1-isopropylpiperidin-4-yl)benzo[d]oxazol-5-yl)-2-methylbenzyl)oxy)benzyl)piperidine-2-carboxylic Acid] | 1 to 5 nM | 
Cc1c(COc2cc(OCc3cncc(C#N)c3)c(CN3CCCC[C@H]3C(=O)O)cc2Cl)cccc1-c1ccc2oc(C3CC4CCC(C3)N4C)nc2c1 (stereo partly drawn) [Example 1014, (2S)-1-(5-chloro-2-((5-cyanopyridin-3-yl)methoxy)-4-((2-methyl-3-(2-(8-methyl-8-azabicyclo[3.2.1]octan-3-yl)benzo[d]oxazol-5-yl)benzyl)oxy)benzyl)piperidine-2-carboxylic Acid] | 1 to 5 nM | 
Cc1c(COc2cc(OCc3cncc(C#N)c3)c(CN3CCCC[C@H]3C(=O)O)cc2Cl)cccc1-c1ccc2oc(C34CC(N)(C3)C4)nc2c1 [Example 1015, (S)-1-(4-((3-(2-(3-aminobicyclo[1.1.1]pentan-1-yl)benzo[d]oxazol-5-yl)-2-methylbenzyl)oxy)-5-chloro-2-((5-cyanopyridin-3-yl)methoxy)benzyl)piperidine-2-carboxylic Acid] | 5.01 to 10.1 nM | 
Cc1c(COc2cc(OCc3cncc(C#N)c3)c(CN3CCCC[C@H]3C(=O)O)cc2Cl)cccc1-c1ccc2oc(C3CCN(CC(=O)O)CC3)nc2c1 [Example 1016, (S)-1-(4-((3-(2-(1-(carboxymethyl)piperidin-4-yl)benzo[d]oxazol-5-yl)-2-methylbenzyl)oxy)-5-chloro-2-((5-cyanopyridin-3-yl)methoxy)benzyl)piperidine-2-carboxylic Acid] | 0.18 to 0.99 nM | 
Cc1c(COc2cc(OCc3cncc(C#N)c3)c(CN3CCCC[C@H]3C(=O)O)cc2Cl)cccc1-c1ccc2oc(C3CCOCC3)nc2c1 [Example 1017, (S)-1-(5-chloro-2-((5-cyanopyridin-3-yl)methoxy)-4-((2-methyl-3-(2-(tetrahydro-2H-pyran-4-yl)benzo[d]oxazol-5-yl)benzyl)oxy)benzyl)piperidine-2-carboxylic Acid] | 0.18 to 0.99 nM | 
Cc1c(COc2cc(OCc3cncc(C#N)c3)c(CN3CCCC[C@H]3C(=O)O)cc2Cl)cccc1-c1ccc2oc(C3CC4CCC(C3)O4)nc2c1 (stereo partly drawn) [Example 1018, (2S)-1-(4-((3-(2-(8-oxabicyclo[3.2.1]octan-3-yl)benzo[d]oxazol-5-yl)-2-methylbenzyl)oxy)-5-chloro-2-((5-cyanopyridin-3-yl)methoxy)benzyl)piperidine-2-carboxylic Acid] | 1 to 5 nM | 
Cc1c(COc2cc(OCc3cncc(C#N)c3)c(C=O)cc2Cl)cccc1-c1ccc2oc(C3CCN(C)CC3)nc2c1 [Example 1019, 5-((4-chloro-2-formyl-5-((2-methyl-3-(2-(1-methylpiperidin-4-yl)benzo[d]oxazol-5-yl)benzyl)oxy)phenoxy)methyl)nicotinonitrile] | 5.01 to 10.1 nM | 

From patent publication US10882844B2, “Compounds useful as immunomodulators” (Bristol-Myers Squibb Company, priority 2016, dated 2021)
